US10105357B2, “Indication of antibiotic drugs for preparation of cancer inhibition pharmaceutical composition” (LAUNX BIOMEDICAL CO., LTD., priority 2014, dated 2018)
Read-outs that look alike come from different tables or passages of the source.

How the values were obtained:
[1] = tested on: TSGH-8301 (Urinary Bladder Carcinoma); experiment: Cell viability analysis, bladder cancer TSGH-8301; assay type: cell-based, human; conditions: for viability at 10 µM: Homo sapiens, 72 h
[2] = tested on: Hep3B (hepatocellular carcinoma); experiment: Cell viability analysis, hepatic cancer Hep3B; assay type: cell-based, human
[3] = tested on: BCC (basal cell carcinoma); experiment: Cell viability analysis, skin cancer BCC; assay type: cell-based, human
TOV-21G = experiment: Cell viability analysis, ovarian cancer TOV-21G; assay type: cell-based, human
NIH: OVCAR-3 = experiment: Cell viability analysis, ovarian cancer NIH: OVCAR-3; assay type: cell-based, human
[4] = tested on: HI650 (Lung Adenocarcinoma); experiment: Cell viability analysis, lung cancer HI650; assay type: cell-based, human; conditions: for viability at 10 µM: Homo sapiens, NCI-H1650, 72 h
[5] = tested on: PC3 (p53−) (Prostate Adenocarcinoma); experiment: Cell viability analysis, prostate cancer PC3; assay type: cell-based, human; conditions: for viability at 10 µM: Homo sapiens, 72 h
[6] = tested on: HCT116 (p53+) (Colorectal Carcinoma)
U-2OS = experiment: Cell viability analysis, osteosarcoma U-2OS; assay type: cell-based, human
[7] = tested on: A549 (Lung Adenocarcinoma); experiment: Cell viability analysis, lung cancer A549; assay type: cell-based, human; conditions: for viability at 10 µM: Homo sapiens, A549, 72 h
[8] = tested on: MKN-45 (Gastric Adenocarcinoma); experiment: Cell viability analysis, gastric cancer MKN-45; assay type: cell-based, human; conditions: for viability at 10 µM: Homo sapiens, MKN-45, 72 h
[9] = tested on: MDA-MB-231 (Mammary Gland, Adenocarcinoma); experiment: Cell viability analysis, breast cancer MDA-MB-231; assay type: cell-based, human
[10] = tested on: HepG2 (Hepatocellular Carcinoma); experiment: Cell viability analysis, hepatic cancer HepG2; assay type: cell-based, human; conditions: for viability at 10 µM: Homo sapiens, HepG2, 72 h
AsPC-1 = experiment: Cell viability analysis, pancreatic cancer AsPC-1; assay type: cell-based, human
[11] = tested on: SAS (Tongue squamous cell carcinoma); experiment: Cell viability analysis, tongue cancer SAS; assay type: cell-based, human
cancer cell lines = experiment: Cell viability analysis (WST-1) on cancer cell lines; assay type: cell-based, human; conditions: drug 10 μM, 72 hours, WST-1; Table 3
[12] = tested on: MCF7 (Mammary Gland, Adenocarcinoma); experiment: Cell viability analysis, breast cancer MCF7; assay type: cell-based, human; conditions: for viability at 10 µM: Homo sapiens, MCF7, 72 h
[13] = tested on: LoVo (Colorectal Adenocarcinoma); experiment: Cell viability analysis, colon cancer LoVo; assay type: cell-based, human; conditions: for viability at 10 µM: Homo sapiens, LoVo, 72 h
[14] = tested on: C-33A (Cervical carcinoma); experiment: Cell viability analysis, cervical cancer C-33A; assay type: cell-based, human
BxPC-3 = experiment: Cell viability analysis, pancreatic cancer BxPC-3; assay type: cell-based, human
[15] = tested on: AGS (Gastric Adenocarcinoma); experiment: Cell viability analysis, gastric cancer AGS; assay type: cell-based, human; conditions: for viability at 10 µM: Homo sapiens, 72 h
[16] = tested on: A375 (Amelanotic Melanoma); experiment: Cell viability analysis, skin cancer A375; assay type: cell-based, human; conditions: for viability at 10 µM: Homo sapiens, A-375, 72 h
T24 = experiment: Cell viability analysis, bladder cancer T24; assay type: cell-based, human
[17] = tested on: HeLa (Cervix Adenocarcinoma); experiment: Cell viability analysis, cervical cancer HeLa; assay type: cell-based, human; conditions: for viability at 10 µM: Homo sapiens, HeLa, 72 h
[18] = tested on: 786-O (Renal adenocarcinoma); experiment: Cell viability analysis, renal cancer 786-O; assay type: cell-based, human

Structure (SMILES): CC[C@H]1OC(=O)[C@H](C)[C@@H](O[C@H]2C[C@@](C)(OC)[C@@H](O)[C@H](C)O2)[C@H](C)[C@@H](O[C@@H]2O[C@H](C)C[C@H](N(C)C)[C@H]2O)[C@](C)(O)C[C@@H](C)CN(C)[C@H](C)[C@@H](O)[C@]1(C)O [Azithromycin Dihydrate]
- viability at 10 µM ([1]; read-out: The results of antibiotic drug inhibiting cancer cell lines (cell viability analysis), TSGH-8301, TSGH-8301, repeated experiment): 119%
- viability at 10 µM ([1]; read-out: cell viability (survival rate), TSGH, drug 10 μM, 72 hours, WST-1, OD450 nm): 39.4%
- viability at 10 µM ([2]; Homo sapiens, Hep3B, 72 h, read-out: The results of antibiotic drug inhibiting cancer cell lines (cell viability analysis), Hep3B): 109%
- viability at 10 µM ([3]; Homo sapiens, 72 h, read-out: The results of antibiotic drug inhibiting cancer cell lines (cell viability analysis), BCC): 70.6%
- viability at 10 µM (TOV-21G; Homo sapiens, TOV21G, 72 h, read-out: The results of antibiotic drug inhibiting cancer cell lines (cell viability analysis), TOV-21G): 89.6%
- viability at 10 µM (NIH: OVCAR-3; Homo sapiens, OVCAR-3, 72 h, read-out: The results of antibiotic drug inhibiting cancer cell lines (cell viability analysis), NIH-OVCAR-3): 94%
- viability at 10 µM ([4]; read-out: The results of antibiotic drug inhibiting cancer cell lines (cell viability analysis), H1650, H1650, repeated experiment): 98.6%
- viability at 10 µM ([4]; read-out: cell viability (survival rate), H1650, drug 10 μM, 72 hours, WST-1, OD450 nm): 61.3%
- viability at 10 µM ([5]; read-out: The results of antibiotic drug inhibiting cancer cell lines (cell viability analysis), PC-3, PC-3, repeated experiment): 97.2%
- viability at 10 µM ([5]; read-out: cell viability (survival rate), PC3, drug 10 μM, 72 hours, WST-1, OD450 nm): 43%
- viability [6]: 80.7%
- viability at 10 µM (U-2OS; Homo sapiens, U2OS, 72 h, read-out: The results of antibiotic drug inhibiting cancer cell lines (cell viability analysis), U2OS): 70.3%
- viability at 10 µM ([7]; read-out: The results of antibiotic drug inhibiting cancer cell lines (cell viability analysis), A549, A549, repeated experiment): 66.3%
- viability at 10 µM ([7]; read-out: cell viability (survival rate), A549, drug 10 μM, 72 hours, WST-1, OD450 nm): 41.4%
- viability at 10 µM ([8]; read-out: The results of antibiotic drug inhibiting cancer cell lines (cell viability analysis), MKN-45, MKN-45, repeated experiment): 95.8%
- viability at 10 µM ([8]; read-out: cell viability (survival rate), MKN-45, drug 10 μM, 72 hours, WST-1, OD450 nm): 51.2%
- viability at 10 µM ([9]; Homo sapiens, MDA-MB-231, 72 h, read-out: The results of antibiotic drug inhibiting cancer cell lines (cell viability analysis), MDA-MB231): 97.8%
- viability at 10 µM ([10]; read-out: The results of antibiotic drug inhibiting cancer cell lines (cell viability analysis), HepG2, HepG2, repeated experiment): 91.4%
- viability at 10 µM ([10]; read-out: cell viability (survival rate), HepG2, drug 10 μM, 72 hours, WST-1, OD450 nm): 81.1%
- viability at 10 µM (AsPC-1; Homo sapiens, ASPC1, 72 h, read-out: The results of antibiotic drug inhibiting cancer cell lines (cell viability analysis), AsPC-1): 75.3%
- viability at 10 µM ([11]; Homo sapiens, 72 h, read-out: The results of antibiotic drug inhibiting cancer cell lines (cell viability analysis), SAS): 50%
- inhibition effect on different cancer cell lines (cancer cell lines): significant inhibition effect
- viability at 10 µM ([12]; read-out: The results of antibiotic drug inhibiting cancer cell lines (cell viability analysis), MCF-7, MCF-7, repeated experiment): 62.3%
- viability at 10 µM ([12]; read-out: cell viability (survival rate), MCF7, drug 10 μM, 72 hours, WST-1, OD450 nm): 36.4%
- viability at 10 µM ([13]; read-out: The results of antibiotic drug inhibiting cancer cell lines (cell viability analysis), LoVo, repeated experiment): 79.2%
- viability at 10 µM ([13]; read-out: cell viability (survival rate), LoVo, drug 10 μM, 72 hours, WST-1, OD450 nm): 65.3%
- viability at 10 µM ([14]; Homo sapiens, C-33-A, 72 h, read-out: The results of antibiotic drug inhibiting cancer cell lines (cell viability analysis), C-33A): 92.6%
- viability at 10 µM (BxPC-3; Homo sapiens, BXPC-3, 72 h, read-out: The results of antibiotic drug inhibiting cancer cell lines (cell viability analysis), BxPC-3): 71.3%
- viability at 10 µM ([15]; read-out: The results of antibiotic drug inhibiting cancer cell lines (cell viability analysis), AGS, repeated experiment): 77.2%
- viability at 10 µM ([15]; read-out: cell viability (survival rate), AGS, drug 10 μM, 72 hours, WST-1, OD450 nm): 72.7%
- viability at 10 µM ([16]; read-out: The results of antibiotic drug inhibiting cancer cell lines (cell viability analysis), A375, A375, repeated experiment): 97.4%
- viability at 10 µM ([16]; read-out: cell viability (survival rate), A375, drug 10 μM, 72 hours, WST-1, OD450 nm): 50.8%
- viability at 10 µM (T24; Homo sapiens, T-24, 72 h, read-out: The results of antibiotic drug inhibiting cancer cell lines (cell viability analysis), T24): 112%
- viability at 10 µM ([17]; read-out: The results of antibiotic drug inhibiting cancer cell lines (cell viability analysis), HeLa, repeated experiment): 105%
- viability at 10 µM ([17]; read-out: cell viability (survival rate), HeLa, drug 10 μM, 72 hours, WST-1, OD450 nm): 55.6%
- viability at 10 µM ([18]; Homo sapiens, 786-0, 72 h, read-out: The results of antibiotic drug inhibiting cancer cell lines (cell viability analysis), 786-O): 91%

Structure (SMILES): CC1(C)[C@@H](O[C@H]2O[C@H](C(=O)O)[C@@H](O)[C@H](O)[C@H]2O[C@@H]2O[C@H](C(=O)O)[C@@H](O)[C@H](O)[C@H]2O)CC[C@]2(C)[C@H]3C(=O)C=C4[C@@H]5C[C@@](C)(C(=O)O)CC[C@]5(C)CC[C@@]4(C)[C@]3(C)CC[C@@H]12 [Ammonium Glycyrrhizinate (AMGZ), Ammonium Glycyrrhizinate]
- The results of antibiotic drug inhibiting cancer cell lines (cell viability analysis), TSGH-8301 [1]: 105.2
- The results of antibiotic drug inhibiting cancer cell lines (cell viability analysis), Hep3B [2]: 102.1
- The results of antibiotic drug inhibiting cancer cell lines (cell viability analysis), BCC [3]: 93.09
- The results of antibiotic drug inhibiting cancer cell lines (cell viability analysis), TOV-21G (TOV-21G): 74.39
- The results of antibiotic drug inhibiting cancer cell lines (cell viability analysis), NIH-OVCAR-3 (NIH: OVCAR-3): 101
- The results of antibiotic drug inhibiting cancer cell lines (cell viability analysis), H1650 [4]: 76.88
- The results of antibiotic drug inhibiting cancer cell lines (cell viability analysis), PC-3 [5]: 120.7
- viability [6]: 93.4%
- The results of antibiotic drug inhibiting cancer cell lines (cell viability analysis), U2OS (U-2OS): 78.97
- The results of antibiotic drug inhibiting cancer cell lines (cell viability analysis), A549 [7]: 83.55
- The results of antibiotic drug inhibiting cancer cell lines (cell viability analysis), MKN-45 [8]: 96.41
- The results of antibiotic drug inhibiting cancer cell lines (cell viability analysis), MDA-MB231 [9]: 98.74
- The results of antibiotic drug inhibiting cancer cell lines (cell viability analysis), HepG2 [10]: 119.7
- The results of antibiotic drug inhibiting cancer cell lines (cell viability analysis), AsPC-1 (AsPC-1): 100.6
- The results of antibiotic drug inhibiting cancer cell lines (cell viability analysis), SAS [11]: 83.22
- inhibition effect on different cancer cell lines (cancer cell lines): significant inhibition effect
- The results of antibiotic drug inhibiting cancer cell lines (cell viability analysis), MCF-7 [12]: 69.06
- The results of antibiotic drug inhibiting cancer cell lines (cell viability analysis), LoVo [13]: 100.4
- The results of antibiotic drug inhibiting cancer cell lines (cell viability analysis), C-33A [14]: 108.4
- The results of antibiotic drug inhibiting cancer cell lines (cell viability analysis), BxPC-3 (BxPC-3): 102.8
- The results of antibiotic drug inhibiting cancer cell lines (cell viability analysis), AGS [15]: 109.2
- The results of antibiotic drug inhibiting cancer cell lines (cell viability analysis), A375 [16]: 100.5
- The results of antibiotic drug inhibiting cancer cell lines (cell viability analysis), T24 (T24): 107.9
- The results of antibiotic drug inhibiting cancer cell lines (cell viability analysis), HeLa [17]: 103.4
- The results of antibiotic drug inhibiting cancer cell lines (cell viability analysis), 786-O [18]: 102.9
